Results reported in patent publication US8222242B2, “Nitric oxide releasing compounds” (The Regents of the University of California, priority 2008, dated 2012).
Read-outs that look alike come from different tables or passages of the source.

What was measured:
D. melanogaster = assay: Viability of injected D. melanogaster; details: 1 μl injected; 1 mM (ascorbic acid 5 mM); observed 48 h
Experimental: (A) Tubular secretion rates of Malpighian tubules isolated from D. melanogaster were measured, using half-strength Schneider's medium. Basal tubular secretion was measured at 0, 10, and 20 minutes; at 20 minutes (depicted by the arrow) 1 mM cobinamide (Cbi, open circles), 1 mM NO-Cbi (filled circles), 0.5 mM Deta-NONOate (diamonds), or 100 μM 8-CPT-cGMP (inverted triangles) were added. Results are the mean±S.D. of three independent experiments performed on Malpighian tubule pairs from 10 flies. […] (B). Flies were injected with 1 μl of 1 mM cobinamide (Cbi, open circles), 1 mM NO-Cbi (filled circles), 0.5 mM Deta-NONOate (diamonds), or 1 mM spermine NONOate (squares). […] The data are plotted as a Kaplan-Meier survival curve, and are the mean±SD of three experiments, with 10 flies per condition per experiment. […] (C). Flies were injected with 1 μl of water (control, open bar), 1 mM cobinamide (Cbi, grey bar), or 1 mM NO-Cbi (black bars). Flies were killed and extracts were prepared at 3 hours for the water- and cobinamide-injected flies, and at the indicated times for the NO-Cbi-injected flies. Nitrite and nitrate in the extracts were measured using an enhanced Griess reagent.
The fluid volume of a fly is […], and thus, the injected agent was diluted about 10-fold. […]

mouse aortic rings = assay: Relaxation of mouse aortic rings constricted with prostaglandin F2α; details: rings pretreated with 2 μM prostaglandin F2α; read-out: EC50, concentration that induced half-maximal relaxation
Experimental: Hearts and aortas were removed from NIH Swiss mice anesthetized with sodium nembutal, and coronary flow was measured in the hearts using a Langendorff preparation (FIG. 5a) and relaxation of aortic rings was measured after inducing constriction of the rings with prostaglandin F2α (FIG. 5b). The hearts and aortic rings were treated with a range of concentrations of NO-Cbi (filled circles), nitroglycerin (open circles, dotted line, FIG. 5a), and sodium nitroprusside (open circles, FIG. 5b). Coronary flow was measured on the same hearts for both NO-Cbi and nitroglycerin after an appropriate wash-out period between drugs, and aortic ring relaxation was measured on two rings from the same aorta for NO-Cbi and sodium nitroprusside. The data are the mean of two independent experiments performed on two separate hearts in each experiment (FIG. 5a), and the mean±SEM of two independent experiments performed on three separate aortic rings in each experiment (FIG. 5b).
Relaxation of aortic contraction was measured in 3 mm rings cut from thoracic aortas of mice; the rings were pretreated with 2 μM prostaglandin F2α to produce 0.5-1 g of active tension.

[1] = for change of spectrum: room temperature, open to air
Experimental: NO-Cbi was diluted 100-fold into DMEM containing 10% FBS, transferred to a cuvette, and analyzed immediately by spectrophotometry between 300 and 600 nm (curve a). Spectra were obtained every 30 minutes for 3 hours, generating the family of curves, with curve b being the 3 hour spectrum; in the inset, curve b is the spectrum at 16 hours. The cuvette was open to air and kept at room temperature. The same experiment was repeated two times with similar results.
NO-Cbi was diluted 100-fold in water, PBS, or DMEM containing 10% FBS to a final concentration of 50 uM. It was analyzed spectrophotometrically between 300 and 600 nm in a Kontron 860 spectrophotometer, and by mass spectroscopy using a LCQ classic ion-trap-type mass spectrometer (Thermo-Finnigan) at 160° C. capillary temperature and 5000V spray voltage. The mass spectrometry data were acquired in profile mode and analyzed on Xcalibur software.

[2] = test system: CS-54 rat vascular smooth muscle cells
Experimental: CS-54 rat vascular smooth muscle cells were treated with the indicated concentrations of NO-Cbi for 1 hour (A), or 10 μM NO-Cbi for the indicated times (B and C). […] (C) Cell extracts were clarified by centrifugation, and nitrite and nitrate in the extracts were measured by an enhanced Griess reagent method. In A and B, “Con” refers to control, which was cells treated with water. As indicated, the effects of 30 μM cobinamide (Cbi) and 100 μM 8-CPT-cGMP (cGMP) are shown for comparison. In A and B, similar results were obtained in two other experiments.
Nitrite and nitrate were measured in CS-54 cell extracts and fly extracts using a kit from Active Motif based on an enhanced Griess reagent, as described previously (Broderick K E et al. (2006) FASEB J. 20:1865-73).

[3] = incubated with excess heme; cited from earlier work
mice = type: in vivo, mouse; details: 0.6 nmol three times at 32 minute intervals

CC1=C2[N+]3=C(C=C4[N+]5=C(C(C)=C6[N]7C(C(CC(N)=O)C6(C)CCC(=O)NCC(C)O)C6(C)[N+](=C1C(CCC(N)=O)C6(C)CC(N)=O)[Co-3]753[N]=O)C(CCC(N)=O)C4(C)C)C(CCC(N)=O)C2(C)CC(N)=O (stereo not drawn) [NO-Cbi, nitrosyl cobinamide]
fly killing / toxicity to flies (D. melanogaster): killed the flies as effectively as 1 mM spermine NONOate
EC50 (mouse aortic rings): 195 ± 12 nM
time for spectrum to change to that of cobinamide ([1]; DMEM containing 10% FBS): about 3 h
effect on NO-Cbi's half-life ([1]; buffer): significantly reduced
half-life ([1]; buffer): ~90 min
change of spectrum ([1]; phosphate-buffered saline (PBS)): little spectral change
change of spectrum ([1]; water, 16 hours): did not change
increased nitrite and nitrate as share of the NO added as NO-Cbi ([2]; 10 μM NO-Cbi, CS-54 cells): 55%
nitrite and nitrate in the culture medium ([2]; 10 μM NO-Cbi, CS-54 cells): increased nitrite and nitrate
half-life of NO-Cbi estimated from nitrite and nitrate accumulation ([2]; rat): 30 min and 60 min
half-life [3]: short
blood pressure and heart rate on repeated injections (mice): a decrease in blood pressure and increase in heart rate was observed with each injection
